Measured values published in publication PMC8920929 (The Journal of Biological Chemistry, 2022).
Changes are numbered by the printed parent chain. One block for each compound: values may come before it.

Assays:
[1] = target: T1, TRPV3-L508F (Homo sapiens, UniProt Q8NET8, L508F); experiment: Whole-cell and single-channel recordings of the TRPV3-L508F mutant; assay type: cell-based; settings: carvacrol 0.3-3.0 mM or 50 μM 2-APB
T1 sequence (Q8NET8 1-790 L508F): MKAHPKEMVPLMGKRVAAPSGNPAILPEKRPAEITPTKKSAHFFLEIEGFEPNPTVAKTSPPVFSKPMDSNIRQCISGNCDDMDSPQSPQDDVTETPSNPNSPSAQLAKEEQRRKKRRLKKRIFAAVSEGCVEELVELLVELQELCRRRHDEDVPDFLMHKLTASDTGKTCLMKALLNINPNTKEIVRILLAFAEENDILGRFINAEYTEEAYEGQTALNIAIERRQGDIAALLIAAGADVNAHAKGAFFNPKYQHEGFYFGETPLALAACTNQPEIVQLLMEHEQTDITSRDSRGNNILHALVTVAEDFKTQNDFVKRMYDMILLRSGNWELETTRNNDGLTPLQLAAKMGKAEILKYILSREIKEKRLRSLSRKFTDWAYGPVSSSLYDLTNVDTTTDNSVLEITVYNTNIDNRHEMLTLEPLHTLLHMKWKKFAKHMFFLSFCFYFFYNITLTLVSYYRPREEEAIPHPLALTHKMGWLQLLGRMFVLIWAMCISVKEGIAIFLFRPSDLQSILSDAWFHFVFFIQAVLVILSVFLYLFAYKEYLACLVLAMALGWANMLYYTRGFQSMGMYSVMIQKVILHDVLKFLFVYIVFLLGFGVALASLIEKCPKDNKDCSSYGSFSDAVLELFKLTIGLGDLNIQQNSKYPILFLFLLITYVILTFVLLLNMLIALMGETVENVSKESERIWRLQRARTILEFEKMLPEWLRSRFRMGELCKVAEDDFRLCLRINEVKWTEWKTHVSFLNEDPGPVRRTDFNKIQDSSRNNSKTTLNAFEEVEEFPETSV

[2] = target: T2, TRPV3-I505A (Homo sapiens, UniProt Q8NET8, I505A); experiment: Whole-cell and single-channel recordings of the TRPV3-I505A mutant; assay type: cell-based; settings: carvacrol 0.3-3.0 mM or 50 μM 2-APB
T2 sequence (Q8NET8 1-790 I505A): T1 sequence (Q8NET8 1-790 L508F) with I505A, F508L

[3] = target: T3, human TRPV3 (Homo sapiens, UniProt Q8NET8); experiment: Inside-out single channel recordings of TRPV3; assay type: biochemical
T3 sequence (Q8NET8 1-790): T1 sequence (Q8NET8 1-790 L508F) with F508L

[4] = target: TRPV3-F524A (Homo sapiens, UniProt Q8NET8, F524A); settings: 50 μM 2-APB; the mutant also lost surface expression
[5] = target: T4, TRPV3-L508A (Homo sapiens, UniProt Q8NET8, L508A); experiment: Whole-cell and single-channel recordings of the TRPV3-L508A mutant; assay type: cell-based; settings: carvacrol 0.3-3.0 mM or 50 μM 2-APB
T4 sequence (Q8NET8 1-790 L508A): T1 sequence (Q8NET8 1-790 L508F) with F508A

[6] = system: TRPV3; settings: ref [38]; cited from earlier work
[7] = system: TRPV3; settings: ref [30], cited from earlier work; for TRPV3 currents induced: in comparison with carvacrol
[8] = system: keratinocytes; settings: ref [35]; cited from earlier work
[9] = system: mice; settings: ref [35]; cited from earlier work
[10] = +80 mV, carvacrol 300 μM or 2-APB 50 μM alone
[11] = FB 50 μM in the presence of 50 μM 2-APB, +80 mV
[12] = FB 50 μM in the presence of 300 μM carvacrol, +80 mV

Chain of TRPV3-F524A (Q8NET8 whole entry F524A): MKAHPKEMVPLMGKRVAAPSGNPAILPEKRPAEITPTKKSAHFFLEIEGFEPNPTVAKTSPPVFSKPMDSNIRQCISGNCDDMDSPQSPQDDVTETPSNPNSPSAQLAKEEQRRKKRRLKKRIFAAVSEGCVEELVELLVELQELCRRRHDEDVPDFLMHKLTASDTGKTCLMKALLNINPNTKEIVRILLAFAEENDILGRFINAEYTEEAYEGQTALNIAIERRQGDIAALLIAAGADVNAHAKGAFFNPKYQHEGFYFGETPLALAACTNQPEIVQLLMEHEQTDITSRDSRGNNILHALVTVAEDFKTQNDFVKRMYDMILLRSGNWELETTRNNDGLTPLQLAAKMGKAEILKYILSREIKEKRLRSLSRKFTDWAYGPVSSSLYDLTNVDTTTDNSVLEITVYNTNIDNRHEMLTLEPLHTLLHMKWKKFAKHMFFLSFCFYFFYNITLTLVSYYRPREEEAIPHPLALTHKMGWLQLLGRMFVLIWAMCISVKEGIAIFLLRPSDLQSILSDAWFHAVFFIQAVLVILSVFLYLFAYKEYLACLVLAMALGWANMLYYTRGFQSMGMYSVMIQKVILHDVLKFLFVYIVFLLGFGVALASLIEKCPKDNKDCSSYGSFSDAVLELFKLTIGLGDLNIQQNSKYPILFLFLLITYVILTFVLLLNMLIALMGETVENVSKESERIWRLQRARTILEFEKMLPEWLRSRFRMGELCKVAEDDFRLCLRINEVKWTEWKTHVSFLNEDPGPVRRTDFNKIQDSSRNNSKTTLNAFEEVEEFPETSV

activation of TRPV3 L508F mutant channel [1]: but not 2-APB
activation of TRPV3 I505A mutant channel [2]: intact activation
single-channel open frequency (Freq) [3, 10]: 65.48 ± 12.31 Hz
single-channel open probability (Po) [3, 10]: 0.77 ± 0.07
unitary conductance of TRPV3 single channels ([3]; inside-out patches, -80 mV to +80 mV, carvacrol 300 μM, 2-APB 50 μM, n = 4): 173.2 ± 5.3 pS
sensitivity of TRPV3 F524A mutant channel [4]: reduced sensitivity
Compound: NCCOB(c1ccccc1)c1ccccc1 [2-APB, 2-aminoethyl diphenylborinate]
activation of TRPV3 L508A mutant channel [5]: still able to activate the mutant channel
unitary conductance, 2-APB in the absence of dyclonine [6]: 163.6 ± 6.4 pS
unitary conductance, 2-APB in the presence of TRPV3 inhibitor dyclonine [6]: 179.2 ± 5.5 pS

Compound: CC12CCC(CC1=O)C2(C)C (stereo not drawn) [camphor]
EC50 ([7]; read-out: EC50, activation of TRPV3, [32]): ~6 mM

Compound: Cc1ccc(C(C)C)cc1 [p-Cymene]
TRPV3 currents induced [7]: small or negligible

Compound: Cc1ccc(C)c(O)c1 [p-Xylenol]
TRPV3 currents induced [7]: small or negligible

Po after addition of inhibitor, 2-APB-activated channels [3, 11]: 0.12 ± 0.08
open Freq after addition of inhibitor, 2-APB-activated channels [3, 11]: 20.07 ± 1.77 Hz
Po after addition of inhibitor, carvacrol-activated channels [3, 12]: 0.12 ± 0.03
open Freq after addition of inhibitor, carvacrol-activated channels [3, 12]: 21.78 ± 2.59 Hz
Compound: forsythoside B [FB]
effect on carvacrol-induced cytotoxicity of keratinocytes [8]: attenuates
effect on carvacrol-induced pruritus [9]: attenuates pruritus
